Test results published in US12516054B2, “Pyrazolo[1,5-a]pyridine derivatives, preparation method therefor and use thereof” (SHANGHAI DAIDAI INVESTMENT CONSULTING CO., LTD, priority 2019, dated 2026).

Key:
[1] = test system: TT cells; test: Inhibition of proliferation of tumor cells with abnormal RET (TT cells), CellTiter-Glo; assay type: cell-based; settings: 192 h, TT cells (human MTC, RET C634W), incubated 8 d, read-out: IC50 for inhibition on TT cell proliferation
Method: The following method was used to determine the inhibitory activity of the preferred compound of the present disclosure on the proliferation of TT cells in vitro. TT cells were a human medullary thyroid cancer (MTC) cell line, including the RET C634W mutation. The cell line was purchased from the American ATCC (Cat. No. ATCC® CRL-1803). The cells were cultivated at 37° C. and 5% CO2 with the Ham's F-12K (Kaighn's) medium (purchased from Thermofisher, Gibco, Cat. No. 21127022) that was supplemented with 10% fetal bovine serum (FBS, purchased from Thermofisher, Gibco, Cat. No. 12483-020), 1× Glutamax (purchased from Thermofisher, Gibco, Cat. No. 35050061), 1× non-essential amino acids (purchased from Thermofisher, Gibco, Cat. No. 11140050), and 1× Pen/Strep antibiotics (purchased from Thermofisher, Gibco, Cat. No. 15140122). Cell viability was determined using CellTiter-Glo® Luminescent Cell Viability Assay (Cat. No. G7573) of Promega.
Brief description of an experimental method: The day before the formal experiment, the cells at the logarithmic growth phase were digested with trypsin (purchased from Thermofisher, Gibco, Cat. No. 25300054), then an appropriate volume of the medium was added to terminate the trypsin reaction, and a resulting mixture was centrifuged at a speed of 1,000 rpm; a resulting supernatant was removed, and fresh medium was added to prepare a cell suspension; and 50 µL of the cell suspension was added to a 96-well cell culture plate (purchased from Corning, Cat. No. 3904) with a cell density of 6,000 cells/well, and then the cell culture plate was incubated overnight at 37° C. and 5% CO2. […] After the incubation was completed, 50 μL of a CellTiter-Glo reagent was added to each well, a resulting mixture was thoroughly shaken and then incubated at room temperature for 10 min in the dark, and then a signal of each well was read on the Envision microplate reader (Perkin Elmer). […]

[2] = biological target: GST-hRET kinase (658-1114) (Homo sapiens (Human), UniProt P07949); test: Inhibitory activity on RET enzyme (HTRF KinEASE-TK); assay type: biochemical; settings: 0.5 nM RET kinase, 10 μM ATP, read-out: IC50 for inhibition on RET enzyme activity
Method: 2. Reagent Preparation • (1) 1× enzyme reaction buffer: 5× enzyme reaction buffer was diluted with ultrapure water (UPW) at 4:1, and then 25 nM SEB was added. • (2) 5×RET kinase: RET kinase was diluted with 1× enzyme reaction buffer to 2.5 nM. • (3) 5×ATP: ATP was diluted with 1× enzyme reaction buffer to 50 μM. • (4) 5× substrate: TK substrate-biotin was diluted with 1× enzyme reaction buffer to 2,500 nM. • (5) 2.5× compound: The highest final concentration was 2,500 nm, 3-fold gradient dilution was conducted to obtain 10 dilution points, and a final DMSO concentration was 0.4%. • (6) 4× Steptavidin-XL665: Steptavidin-XL665 was diluted with 1× enzyme reaction buffer to […]. 3. Experimental Process • (1) 5×RET kinase was added to a 384-well plate at 2 μl/well (final concentration of 0.5 nM), and a blank group (enzyme reaction buffer) was set as a negative control. • (2) A 2.5× compound solution was added at 4 μl/well, and then the plate was incubated at room temperature for 30 min. A DMSO group was set as a positive control. • (3) 5× substrate (at 2 μl/well, final concentration: 500 nM) and 5×ATP (at 2 μl/well, final concentration: 10 μM) were added to start a reaction, and the reaction was conducted at room temperature for 30 min. • (4) TK Antibody-Cryptate (at 5 μl/well) and 4× Steptavidin-XL665 (at 5 μl/well, final concentration: […]) were added, and the plate was incubated at room temperature for 60 min. • (5) An HTRF signal was read on Envision. 4. Data Analysis
The dosage effect (IC50) of the compound with analyzed using the Graph Pad prism software.

Sequence of GST-hRET kinase (658-1114) (P07949 658-1114): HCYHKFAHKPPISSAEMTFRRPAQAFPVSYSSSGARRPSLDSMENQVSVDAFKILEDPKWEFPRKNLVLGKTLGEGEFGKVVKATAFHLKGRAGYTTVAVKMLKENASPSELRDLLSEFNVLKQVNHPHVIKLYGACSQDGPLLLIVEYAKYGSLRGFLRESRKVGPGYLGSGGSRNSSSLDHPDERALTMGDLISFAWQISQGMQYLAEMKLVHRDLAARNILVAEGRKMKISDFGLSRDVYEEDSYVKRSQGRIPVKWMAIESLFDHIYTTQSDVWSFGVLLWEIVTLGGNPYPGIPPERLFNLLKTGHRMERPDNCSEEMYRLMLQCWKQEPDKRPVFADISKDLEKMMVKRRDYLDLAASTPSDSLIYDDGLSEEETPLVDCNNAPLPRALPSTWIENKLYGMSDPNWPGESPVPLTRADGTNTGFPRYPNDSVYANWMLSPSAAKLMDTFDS

Row | SMILES | IC50 [1] | IC50 [2]
1 | COc1ccc(CN2CC=C(c3ccc(-c4cc(-c5cnn(C)c5)cn5ncc(C#N)c45)cn3)CC2)cn1 [Compound 1, 4-(1′-((6-methoxypyridin-3-yl)methyl)-1′,2′,3′,6′-tetrahydro-[2,4′-bipyridin]-5-yl)-6-(1-methyl-1H-pyrazol-4-yl)pyrazolo[1,5-a]pyridine-3-carbonitrile] | 28.9 nM | 23.1 nM
2 | COc1ccc(CN2CC=C(c3ccc(-c4cc(OCC(C)(C)O)cn5ncc(C#N)c45)cn3)CC2)cn1 [Compound 2, 6-(2-hydroxy-2-methylpropoxy)-4-(1′-((6-methoxypyridin-3-yl)methyl)-1′,2′,3′,6′-tetrahydro-[2,4′-bipyridin]-5-yl)pyrazolo[1,5-a]pyridine-3-carbonitrile] |  | 25.4 nM
3 | COc1ccc(C(=O)N2CC=C(c3ccc(-c4cc(OCC(C)(C)O)cn5ncc(C#N)c45)cn3)CC2)cn1 [Compound 8, 6-(2-hydroxy-2-methylpropoxy)-4-(1′-(6-methoxynicotinoyl)-1′,2′,3′,6′-tetrahydro-[2,4′-bipyridin]-5-yl)pyrazolo[1,5-a]pyridine-3-carbonitrile] | 87.8 nM | 
4 | COc1ccc(CN2C3CC2CN(c2ccc(-c4cc(CCC(C)(C)O)cn5ncc(C#N)c45)cn2)C3)cn1 [Compound 10, 6-(3-hydroxy-3-methylbutyl)-4-(6-(6-((6-methoxypyridin-3-yl)methyl)-3,6-diazabicyclo[3.1.1]heptan-3-yl)pyridin-3-yl)pyrazolo[1,5-a]pyridine-3-carbonitrile] | 68.6 nM | 5.6 nM
